# System: C57Bl/6J (hIGF1R, Apc^Min/+) mice
# Test: Inhibition of polyposis in human IGF1R knock-in Apc Min/+ mice (adenoma number and diameter scored at postnatal day 80)
# Format: in vivo
# Settings: small intestine and colon, 19D12 0.02, 0.1, 0.5 mg/mouse i.p. once a week, celecoxib 150, 500, 1500 ppm in diet
# Excerpt: In this example, the ability of anti-IGF1R antibody 19D12 (LCF/HCA: amino acids 20-128 of SEQ ID NO: 8 and 20-137 of SEQ ID NO: 10) to treat familial adenomatous polyposis (FAP) is established in a mouse model for the disease. The model comprises the Apc^Min/+ allele which imparts the FAP phenotype. A phenotype that results from the allele is increased development of intestinal adenomas. The Min mutant mouse has an autosomal dominant heterozygous nonsense mutation in the mouse Apc gene (see e.g., Su et al., Science (Wash D.C.) 256: 668-670 (1992)).
# The Min mice are also engineered, by a knock-in mutation, to express the human IGF1R gene. Expression of the IGF1R gene, in the Min mouse, allows determination of the ability of an anti-IGF1R antibody to alleviate the FAP phenotype. […]
# Small intestinal adenomas and colonic adenomas are scored for number and diameter at postnatal day 80. […] Small intestine surface area is calculated by summation of the multiples of length of each fixed segment by width, which is measured at the midpoint of each segment. Colon surface area is calculated by multiplying the length of the fixed material from the anorectal junction to the point of insertion of the small intestine, omitting the appendix, by the width at the midpoint. Raw numbers of adenomas observed as well as adenomas per unit of small intestine and colon surface area are calculated.
substance,measurement,value
19D12 (LCF/HCA): anti-IGF1R antibody 19D12 (LCF/HCA: amino acids 20-128 of SEQ ID NO: 8 and 20-137 of SEQ ID NO: 10),adenomas per unit surface area,dose-dependent reduction
same,raw adenoma number,dose-dependent reduction
